The values below come from patent US6428997B1, “Aminopeptidase derived from Bacillus licheniformis and process for preparation of natural type proteins” (LG Chemical Ltd., priority 1997, dated 2002).

One assay concerns aminopeptidase. The experiment in a line: Effect of chemical materials affecting enzyme activity of aminopeptidase. In kind it is biochemical, Bacillus licheniformis. As to the method:
(§1) In order to examine chemical materials affecting enzyme activity of aminopeptidase, enzyme activities of aminopeptidase treated for 2 hours with dithiotreitol, iodoacetic acid, ortho-phenanthroline and EDTA as 1, 5 and 20 mMJ respectively were measured.

The target of assay [1] is T1, aminopeptidase of Bacillus licheniformis ATCC 12759 (N-terminal sequence SEQ ID NO: 3) (Bacillus licheniformis, UniProt Q65DH7).
T1 sequence (Q65DH7 43-449 limits assumed): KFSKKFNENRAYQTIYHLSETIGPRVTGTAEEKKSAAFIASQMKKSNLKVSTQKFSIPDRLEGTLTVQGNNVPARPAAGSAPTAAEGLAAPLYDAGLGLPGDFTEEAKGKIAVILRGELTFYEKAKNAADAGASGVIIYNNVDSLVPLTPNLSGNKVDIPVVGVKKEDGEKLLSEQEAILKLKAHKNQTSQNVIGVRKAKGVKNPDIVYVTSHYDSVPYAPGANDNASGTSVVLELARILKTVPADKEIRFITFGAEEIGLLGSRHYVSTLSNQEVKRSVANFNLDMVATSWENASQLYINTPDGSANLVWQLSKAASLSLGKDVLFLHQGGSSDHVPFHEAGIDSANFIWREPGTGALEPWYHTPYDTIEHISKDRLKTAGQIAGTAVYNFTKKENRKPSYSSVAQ
The experiment in a line: Effect of chemical materials on aminopeptidase activity (2 h treatment, leucine-p-nitroanilide substrate). In kind it is biochemical. As to conditions: treated 2 hours, 0 mM = 100, read-out: relative activity. As to the method: Aminopeptidase activities of this invention were measured by the method of Pfleiderer (Pfleiderer, Meth. Enzymol., 19, 514-521, 1970). Precisely, 1 U of enzyme activity defines the enzyme quantity changing 1 absorbance at 405 nm which is measured by the process adding aminopeptidase in 1 ml solution of […] Tris-Cl (pH 8.0) and 2 mM leucine-p-nitroanilide (Sigma, USA), incubating at 37° C. for 1 min, then adding 100 μl of 70% acetic acid to stop the reaction. At that time leucine-p-nitroanilide was dissolved in dimethylsulfoxide (DMSO) to make 100 mM solution.
as §1

For assay [2] the following is noted: Moore, Endocrinology 1988; cited from earlier work.
Setting [3] is: aminopeptidase treated for 2 hours with 1 mM chemical.
Setting [4] is: aminopeptidase treated for 2 hours with 5 mM chemical.
[5] abbreviates: aminopeptidase treated for 2 hours with 20 mM chemical.

Regarding `O[C@H](CS)[C@H](O)CS` (racemic) [dithiotreitol, dithiothreitol], the “effect on aminopeptidase activity (in words)” value (“effect” for short) with aminopeptidase is on record as “inhibited”. The “relative activity (%)” value in the assay with aminopeptidase (setting [3]) amounted to 0.8%; with aminopeptidase (setting [4]), 0%; with aminopeptidase (setting [5]) it was 0%.
With `O=C(O)CN(CCN(CC(=O)O)CC(=O)O)CC(=O)O` [EDTA, ethylenediaminetetraacetic acid], in the assay on aminopeptidase, the “effect” value was “inhibited partially”. Further, the figures for the “relative activity (%)” value with aminopeptidase (setting [3]), in the assay with aminopeptidase (setting [4]) and in the assay on aminopeptidase (setting [5]) were 93.8%, 83.4% and 66.3%, respectively.
For `O=C(O)CI` [iodoacetic acid], the “effect” value with aminopeptidase was “inhibited”. The “relative activity (%)” value in the assay on aminopeptidase (setting [3]) was found to be 98.1%; with aminopeptidase (setting [4]), 104.2%; in the assay with aminopeptidase (setting [5]) it was 0%.
On to `c1cnc2c(c1)ccc1cccnc12` [ortho-penanthroline, ortho-phenanthroline], for which the “effect” value in the assay on aminopeptidase is on record as “inhibited”. The “relative activity (%)” value is given as 91.9% in the assay on aminopeptidase (setting [3]), 86.8% in the assay with aminopeptidase (setting [4]) and 4.7% with aminopeptidase (setting [5]). Moreover, the activity at 1000 µM in assay [1] (pH 8, 1 mM chemical) is 91.9%. In assay [1] (pH 8, 5 mM chemical), the activity at 5000 µM worked out at 86.8%. For the same compound, the activity at 20000 µM in assay [1] (pH 8, 20 mM chemical) is 4.7%.
Turning to “methionyl HGH: recombinant human growth hormone of 192 amino acids with Met-Phe-Pro-Thr sequence at the N-terminus”, the “biological activity compared with natural type HGH” value in assay [2] was “the same activity with that of natural type HGH”.
